This assay concerns VREf isolates. The experiment in a line: microbe, parasite or virus in culture. Conditions: for MIC: modal MIC of triplicate, CLSI guidelines. The protocol: Initial organism identification and susceptibility determination were performed via MALDI-TOF MS (Bruker Daltonics, Billerica, MA, USA) and MicroScan Walkaway (Beckman Coulter, Brea, CA), respectively, in the clinical microbiology laboratory. Pure colonies of the VREf isolates cultured from the CSF on hospital days 33 and 57 and from blood on days 35 and 52 were sub-cultured to BD BBL chocolate II agar slants (Becton, Dickinson and Company, Sparks, MD, USA) and shipped immediately overnight to the research laboratory where all subsequent testing was performed. Identification and resistance marker detection was confirmed via the Verigene Gram-positive blood culture assay (Luminex, Northbrook, IL, USA).
Minimum inhibitory concentrations were determined in triplicate according to CLSI guidelines. Modal MIC values are reported.

The mark [1] stands for this setting: Enterococcus faecium, VREf isolate from CSF, hospital day 33.
Where [2] appears, read: Enterococcus faecium, VREf isolate from CSF, hospital day 57.
Where [3] appears, read: Enterococcus faecium, VREf isolate from blood, hospital day 35.
The mark [4] stands for this setting: Enterococcus faecium, VREf isolate from blood, hospital day 52.
Where [5] appears, read: VREf isolate from CSF, hospital day 33, CLSI M100-S30 unless footnoted (b: CLSI vancomycin-susceptible E. faecalis; c: FDA E. faecalis; d: EUCAST v.10.0 E. faecium).
The mark [6] stands for this setting: VREf isolate from CSF, hospital day 57, CLSI M100-S30 unless footnoted.
Setting [7] is: VREf isolate from blood, hospital day 35, CLSI M100-S30 unless footnoted.
Setting [8] is: VREf isolate from blood, hospital day 52, CLSI M100-S30 unless footnoted.
[9] abbreviates: VREf isolate from CSF, hospital day 33.
Setting [10] is: VREf isolate from CSF, hospital day 57.
Where [11] appears, read: VREf isolate from blood, hospital day 35.
Where [12] appears, read: VREf isolate from blood, hospital day 52.

As for `C=C[C@]1(C)C[C@@H](OC(=O)CS[C@@H]2CC[C@@H](N)C[C@H]2O)[C@]2(C)[C@H](C)CC[C@]3(CCC(=O)[C@H]32)[C@@H](C)[C@@H]1O` [Lefamulin], the MIC is, setting by setting: under setting [1], 1 µg/mL; under setting [2], 2 µg/mL; under setting [3], 1 µg/mL; under setting [4], 2 µg/mL.
In the case of `C[C@H]1COc2c(N3CCN(C)CC3)c(F)cc3c(=O)c(C(=O)O)cn1c23` [Levofloxacin], the MIC is not below 8 µg/mL under setting [1], not below 8 µg/mL under setting [2], not below 8 µg/mL under setting [3] and not below 8 µg/mL under setting [4]. Moreover, the “Interpretive Category” value is “R” under setting [5], “R” under setting [6], “R” under setting [7] and “R” under setting [8].
As for `O=C1CN(/N=C/c2ccc([N+](=O)[O-])o2)C(=O)N1` [Nitrofurantoin], the MIC reads like this: under setting [1], not below 128 µg/mL; under setting [2], not below 128 µg/mL; under setting [3], not below 128 µg/mL; under setting [4], not below 128 µg/mL. Besides, the “Interpretive Category” value is, setting by setting: under setting [5], “R”; under setting [6], “R”; under setting [7], “R”; under setting [8], “R”.
As to `CN(C)c1cc(CNCC(C)(C)C)c(O)c2c1C[C@H]1C[C@H]3[C@H](N(C)C)C(O)=C(C(N)=O)C(=O)[C@@]3(O)C(O)=C1C2=O` [Omadacycline], the MIC runs as follows: under setting [1], 1 µg/mL; under setting [2], 1 µg/mL; under setting [3], 1 µg/mL; under setting [4], 1 µg/mL. Also, the “Interpretive Category” value is given as “R” under setting [5], “R” under setting [6], “R” under setting [7] and “R” under setting [8].
On to `CO[C@H]1/C=C/O[C@@]2(C)Oc3c(C)c(O)c4c(O)c(c(/C=N/N5CCN(C)CC5)c(O)c4c3C2=O)NC(=O)/C(C)=C\C=C\[C@H](C)[C@H](O)[C@@H](C)[C@@H](O)[C@@H](C)[C@H](OC(C)=O)[C@@H]1C` [Rifampin], for which the MIC is, setting by setting: under setting [1], not below 4 µg/mL; under setting [2], not below 4 µg/mL; under setting [3], not below 4 µg/mL; under setting [4], not below 4 µg/mL. The “Interpretive Category” value was “R” under setting [5], “R” under setting [6], “R” under setting [7] and “R” under setting [8].
As for `CCCCCCCCCCNCCN[C@@]1(C)C[C@H](O[C@H]2[C@H](Oc3c4cc5cc3Oc3ccc(cc3Cl)[C@@H](O)[C@@H](NC(=O)[C@@H](CC(C)C)NC)C(=O)N[C@@H](CC(N)=O)C(=O)N[C@H]5C(=O)N[C@H]3C(=O)N[C@H](C(=O)N[C@H](C(=O)O)c5cc(O)c(CNCP(=O)(O)O)c(O)c5-c5cc3ccc5O)[C@H](O)c3ccc(c(Cl)c3)O4)O[C@H](CO)[C@@H](O)[C@@H]2O)O[C@@H](C)[C@H]1O` [Telavancin], the MIC is, setting by setting: under setting [9], not below 4 µg/mL; under setting [10], not below 4 µg/mL; under setting [11], not below 4 µg/mL; under setting [12], not below 4 µg/mL.
With `CN(C)[C@@H]1C(O)=C(C(N)=O)C(=O)[C@@]2(O)C(O)=C3C(=O)c4c(O)cccc4[C@@](C)(O)[C@H]3C[C@@H]12` [Tetracycline], the “Interpretive Category” value runs as follows: under setting [5], “R”; under setting [6], “R”; under setting [7], “R”; under setting [8], “R”.
Take `CN[C@H](CC(C)C)C(=O)N[C@H]1C(=O)N[C@@H](CC(N)=O)C(=O)N[C@H]2C(=O)N[C@H]3C(=O)N[C@H](C(=O)N[C@H](C(=O)O)c4cc(O)cc(O)c4-c4cc3ccc4O)[C@H](O)c3ccc(c(Cl)c3)Oc3cc2cc(c3O[C@@H]2O[C@H](CO)[C@@H](O)[C@H](O)[C@H]2O[C@H]2C[C@](C)(N)[C@H](O)[C@H](C)O2)Oc2ccc(cc2Cl)[C@H]1O` [Vancomycin]: the “Interpretive Category” value by setting is: under setting [5], “R”; under setting [6], “R”; under setting [7], “R”; under setting [8], “R”. Further, the MIC was not below 256 µg/mL under setting [9], not below 256 µg/mL under setting [10], not below 256 µg/mL under setting [11] and not below 256 µg/mL under setting [12].
